Columns and labels:
[1] = biological target: HBV C150Bo capsid protein (mutant C150 HBV core protein labeled with BODIPY-FL) (Hepatitis B virus genotype D subtype adw, UniProt P03147, C107A/C48A/C61A/R150C); test: HBV assembly assay (fluorescence quenching in vitro capsid assembly); assay type: biochemical; settings: at about 10 μM; 50 mM Hepes pH 7.5, 150 mM NaCl, 1 hour room temperature
[2] = system: HBV replication in HepG2-2.2.15 cells; test: Inhibition of HBV replication dot-blot assay; assay type: cell-based; settings: Hepatitis B virus, 144 h, six days, reduction in HBV DNA levels
Protocol: Compounds active in the HBV assembly assay are tested for their activity and toxicity in cellular assay. In the first anti-viral assay, the ability of compounds to inhibit HBV replication in an HBV-producing hepatoma cell line using the dot-blot method is evaluated.
Briefly, confluent monolayers of HepG2-2.2.15 cells are incubated with complete medium containing various concentrations of a test compound. Three days later, the culture medium is replaced with fresh medium containing the appropriately diluted test compound. Six days following the initial administration of the test compound, the cell culture supernatant is collected, and cell lysis is performed. The samples are applied onto Nylos membranes and DNA is immobilized to the membrane by UV cross-linking. After pre-hybridization, the HBV probe is added and the hybridization is performed overnight. The membranes are exposed to the Kodak films; antiviral activity is calculated from the reduction in HBV DNA levels (EC50). The EC50 for antiviral activity is calculated from the dose response curves of active compounds. Assay performance over time is monitored by the use of the standard positive control compounds ETV, BAY 41-4109, and HAP-1.
Selected compounds were tested for their activity and toxicity in cellular assay. In the first anti-viral assay, the ability of compounds to inhibit HBV replication in an HBV-producing hepatoma cell line using the dot-blot method was evaluated.
Confluent monolayers of HepG2-2.2.15 cells were incubated with complete medium containing various concentrations of a test compound. Three days later, the culture medium was replaced with fresh medium containing the appropriately diluted test compound. Six days following the initial administration of the test compound, the cell culture supernatant was collected, and cell lysis was performed. The samples were applied onto Nylos membranes and DNA was immobilized to the membrane by UV cross-linking. After pre-hybridization, the HBV probe was added and the hybridization was performed overnight. The membranes were exposed to the Kodak films; antiviral activity was calculated from the reduction in HBV DNA levels (EC50). The EC50 for antiviral activity was calculated from the dose response curves of active compounds. Assay performance over time was monitored by the use of the standard positive control compounds ETV, BAY 41-4109, and HAP-1.

Sequence of HBV C150Bo capsid protein (mutant C150 HBV core protein labeled with BODIPY-FL) (P03147 1-150 C48A/C61A/C107A/R150C): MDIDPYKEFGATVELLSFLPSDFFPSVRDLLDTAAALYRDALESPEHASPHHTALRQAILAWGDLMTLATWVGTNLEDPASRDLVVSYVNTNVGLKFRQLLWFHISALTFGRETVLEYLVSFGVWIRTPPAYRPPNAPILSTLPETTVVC

| Compound | Activity (HBV assembly assay) [1] | inhibition at 10 µM [2] [%] |
| --- | --- | --- |
| O=C(Nc1ccc(F)c(Cl)c1)c1ccc(F)c(S(=O)(=O)N2CCOCC(O)C2)c1 (stereo not drawn) [Compound 1893] | + (‘+’ indicates >50% activity at about 10 μM) | > 50 |
| O=C(Nc1ccc(F)c(F)c1)c1ccc(F)c(S(=O)(=O)N2CCCC(F)[C@@H](O)C2)c1 (stereo partly drawn) [Compound 1821_D1] | + (‘+’ indicates >50% activity at about 10 μM) | > 50 |
| O=C(Nc1cc(F)c(F)c(F)c1)c1ccc(F)c(S(=O)(=O)N2CCCC(O)CC2)c1 (stereo not drawn) [Compound 1765] | + (‘+’ indicates >50% activity at about 10 μM) | > 50 |
| Cc1ccc(C(=O)Nc2ccc(F)c(F)c2)cc1S(=O)(=O)N1CCCCC(O)C1 (stereo not drawn) [Compound 1914] | + (‘+’ indicates >50% activity at about 10 μM) | > 50 |
| O=C(Nc1ccc(F)c(F)c1)c1ccc(F)c(S(=O)(=O)N2CCCC(F)[C@H](O)C2)c1 (stereo partly drawn) [Compound 1821_D2] | + (‘+’ indicates >50% activity at about 10 μM) | > 50 |
| O=C(Nc1cc(F)c(F)c(F)c1)c1ccc(F)c(S(=O)(=O)N2CCOCC(O)(C3CC3)C2)c1 (stereo not drawn) [Compound 1987] | + (‘+’ indicates >50% activity at about 10 μM) | > 50 |
| O=C(Nc1cc(F)c(F)c(F)c1)c1ccc(F)c(S(=O)(=O)N2CCCCC(F)(F)C2)c1 [Compound 2121] | + (‘+’ indicates >50% activity at about 10 μM) | > 50 |
| O=C(Nc1cc(F)c(F)c(F)c1)c1cccc(S(=O)(=O)N2CCOCC(O)C2)c1 (stereo not drawn) [Compound 1975] | + (‘+’ indicates >50% activity at about 10 μM) | > 50 |
| COc1ccc(C(=O)Nc2ccc(F)c(F)c2)cc1S(=O)(=O)N1CCOCC(O)C1 (stereo not drawn) [Compound 1979] | + (‘+’ indicates >50% activity at about 10 μM) | > 50 |
| Cc1ccc(C(=O)Nc2cc(F)c(F)c(F)c2)cc1S(=O)(=O)N1CCCCC(O)C1 (stereo not drawn) [Compound 1915] | + (‘+’ indicates >50% activity at about 10 μM) | > 50 |
| O=C(Nc1ccc(F)c(Cl)c1)c1ccc(CF)c(S(=O)(=O)N2CCCC(O)CC2)c1 (stereo not drawn) [Compound 1819] | + (‘+’ indicates >50% activity at about 10 μM) | > 50 |
| O=C(Nc1ccc(F)c(Cl)c1)c1ccc(F)c(S(=O)(=O)N2CC(O)CC3CC3C2)c1 (stereo not drawn) [Compound 2492] | + (‘+’ indicates >50% activity at about 10 μM) | > 50 |
| O=C(Nc1ccc(F)c(Cl)c1)c1ccc(F)c(S(=O)(=O)N2CCOC[C@H](O)C2)c1 [Compound 1893_E2] | + (‘+’ indicates >50% activity at about 10 μM) | > 50 |
| O=C(Nc1cc(F)c(F)c(F)c1)c1ccc(F)c(S(=O)(=O)N2CCCC(F)C(O)C2)c1 (stereo not drawn) [Compound 1820] | + (‘+’ indicates >50% activity at about 10 μM) | > 50 |
| CC1(O)CCCCN(S(=O)(=O)c2cc(C(=O)Nc3ccc(F)c(Cl)c3)ccc2F)C1 (stereo not drawn) [Compound 1890] | + (‘+’ indicates >50% activity at about 10 μM) | > 50 |
| CC(=O)O[C@@H]1CC[C@H](OC(C)=O)CN(S(=O)(=O)c2cc(C(=O)Nc3ccc(F)c(Cl)c3)ccc2F)C1 [Compound 2626_D2] | + (‘+’ indicates >50% activity at about 10 μM) | > 50 |
| O=C(Nc1ccc(F)c(F)c1)c1ccc(CF)c(S(=O)(=O)N2CCCC(O)CC2)c1 (stereo not drawn) [Compound 1917] | + (‘+’ indicates >50% activity at about 10 μM) | > 50 |
| CC(=O)O[C@@H]1CC[C@H](O)CN(S(=O)(=O)c2cc(C(=O)Nc3ccc(F)c(Cl)c3)ccc2F)C1 [Compound 2619_D2] | + (‘+’ indicates >50% activity at about 10 μM) | > 50 |
| O=C(Nc1ccc(F)c(Cl)c1)c1ccc(F)c(S(=O)(=O)N2CCC[C@H](O)CC2)c1 [Compound 1766_E2] | + (‘+’ indicates >50% activity at about 10 μM) | > 50 |
| O=C(Nc1ccc(F)c(Cl)c1)c1ccc(F)c(S(=O)(=O)N2C[C@H](O)CC[C@@H](O)C2)c1 [Compound 2433_D1] | + (‘+’ indicates >50% activity at about 10 μM) | > 50 |

| Compound | Activity (HBV assembly assay) [1] | inhibition at 10 µM [2] [%] |
| --- | --- | --- |
| COc1ccc(C(=O)Nc2ccc(F)c(Cl)c2)cc1S(=O)(=O)N1CCCC(O)C(F)C1 (stereo not drawn) [Compound 2114_D2] | + (‘+’ indicates >50% activity at about 10 μM) | – |
| CC(=O)O[C@@H]1CC[C@H](O)CN(S(=O)(=O)c2cc(C(=O)Nc3cc(F)c(F)c(F)c3)ccc2F)C1 [Compound 2618_D2] | + (‘+’ indicates >50% activity at about 10 μM) | > 50 |
| O=C(Nc1ccc(F)c(Cl)c1)c1ccc(CF)c(S(=O)(=O)N2CCCC(O)CC2)c1 (stereo not drawn) [Compound 1916] | + (‘+’ indicates >50% activity at about 10 μM) | – |
| O=C(Nc1ccc(F)c(Cl)c1)c1ccc(CF)c(S(=O)(=O)N2CCOCC(O)C2)c1 (stereo not drawn) [Compound 1983] | + (‘+’ indicates >50% activity at about 10 μM) | > 50 |
| O=C(Nc1ccc(F)c(Cl)c1)c1ccc(F)c(S(=O)(=O)N2CCOCC(O)(C3CC3)C2)c1 (stereo not drawn) [Compound 1989] | + (‘+’ indicates >50% activity at about 10 μM) | > 50 |
| O=C(Nc1cc(F)c(F)c(F)c1)c1ccc(F)c(S(=O)(=O)N2CCC(O)C(F)(F)CC2)c1 (stereo not drawn) [Compound 2202] | + (‘+’ indicates >50% activity at about 10 μM) | > 50 |
| O=C(Nc1cc(F)c(F)c(F)c1)c1ccc(CF)c(S(=O)(=O)N2CC(O)CC3CC3C2)c1 (stereo not drawn) [Compound 2550] | + (‘+’ indicates >50% activity at about 10 μM) | > 50 |
| O=C(Nc1cc(F)c(F)c(F)c1)c1ccc(F)c(S(=O)(=O)N2C[C@H](O)CC[C@H](O)C2)c1 [Compound 2617_D2] | + (‘+’ indicates >50% activity at about 10 μM) | > 50 |
| O=C(Nc1ccc(F)c(Cl)c1)c1ccc(F)c(S(=O)(=O)N2CCCC(F)[C@@H](O)C2)c1 (stereo partly drawn) [Compound 1822_D1] | + (‘+’ indicates >50% activity at about 10 μM) | > 50 |
| CC1(O)COCCN(S(=O)(=O)c2cc(C(=O)Nc3ccc(F)c(Cl)c3)ccc2F)C1 (stereo not drawn) [Compound 1986] | + (‘+’ indicates >50% activity at about 10 μM) | > 50 |
| O=C(Nc1ccc(F)c(Cl)c1)c1ccc(F)c(S(=O)(=O)N2CCCC(F)CC2)c1 (stereo not drawn) [Compound 2123] | + (‘+’ indicates >50% activity at about 10 μM) | > 50 |
| O=C(Nc1cc(F)c(F)c(F)c1)c1ccc(CF)c(S(=O)(=O)N2CCCCCC2)c1 [Compound 2002] | + (‘+’ indicates >50% activity at about 10 μM) | > 50 |
| O=C(Nc1cc(F)c(F)c(F)c1)c1ccc(CF)c(S(=O)(=O)N2CCOCC(O)(C3CC3)C2)c1 (stereo not drawn) [Compound 2505] | + (‘+’ indicates >50% activity at about 10 μM) | > 50 |
| CC1(O)CCCN(S(=O)(=O)c2cc(C(=O)Nc3cc(F)c(F)c(F)c3)ccc2F)CC1 (stereo not drawn) [Compound 1944] | + (‘+’ indicates >50% activity at about 10 μM) | > 50 |
| O=C(Nc1ccc(F)c(Cl)c1)c1ccc(F)c(S(=O)(=O)N2CCCC[C@@H](O)C2)c1 [Compound 1763_E1] | + (‘+’ indicates >50% activity at about 10 μM) | > 50 |
| O=C(Nc1cc(F)c(F)c(F)c1)c1ccc(CCF)c(S(=O)(=O)N2CCCC(O)CC2)c1 (stereo not drawn) [Compound 2206] | + (‘+’ indicates >50% activity at about 10 μM) | > 50 |
| O=C(Nc1ccc(F)c(Cl)c1)c1ccc(F)c(S(=O)(=O)N2C[C@H](O)CC[C@H](O)C2)c1 [Compound 2433_D2, N-(3-chloro-4-fluoro-phenyl)-3-(3,6-dihydroxyazepan-1-yl)sulfonyl-4-fluoro-benzamide] | + (‘+’ indicates >50% activity at about 10 μM) | > 50 |
| O=C(Nc1ccc(F)c(Cl)c1)c1ccc(F)c(S(=O)(=O)N2CCCC[C@H](O)C2)c1 [Compound 1763_E2] | + (‘+’ indicates >50% activity at about 10 μM) | > 50 |
| O=C(Nc1ccc(F)c(Cl)c1)c1ccc(F)c(S(=O)(=O)N2CCCC(O)C(O)C2)c1 (stereo not drawn) [Compound 1909] | – | > 50 |

From patent US9181288B2, “Azepane derivatives and methods of treating hepatitis B infections” (Novira Therapeutics, Inc., priority 2014, dated 2015)
